# Measurements taken from US12643871B2, “Aryl formamide compound containing chiral sulfur oxide or salt thereof, preparation method, herbicidal composition and use thereof” (Qingdao Kingagroot Chemical Compound Co., Ltd., priority 2019, dated 2026).
# Tests used:
# Format in all cases: in vivo
# Corn-Zhengdan 958 = experiment: Comparison experiment (post-emergence, Table 7), crop safety on corn; conditions: Corn-Zhengdan 958 (3.5 leaf)
# Excerpt: (§1) If there is no clear marker, the post-seedling test conditions are the same as above, and the experimental results are shown in Tables 4-7.
# Digitaria sanguinalis [1] = experiment: Comparison experiment (post-emergence) against racemate / S configuration; conditions: Digitaria sanguinalis (3.5 leaf), 16DAA
# Green Setaria viridis = experiment: as above; conditions: for Results of comparison experiment (16DAA), weed control: Setaria viridis (4 leaf)
# Leptochloa chinensis = experiment: as above; conditions: Leptochloa chinensis (4.5 leaf), 16DAA
# Abutilon theophrasti = experiment: as above; conditions: Abutilon theophrasti (3.5 leaf), 16DAA
# Sinapis arvensis = experiment: Comparison experiment (post-emergence, Table 7); conditions: Sinapis arvensis (3.5 leaf)
# Excerpt: as §1
# Descurainia sophia = experiment: Comparison experiment (post-emergence, Table 7); conditions: Descurainia sophia (12 leaf)
# Excerpt: as §1
# Malachium aquaticum = experiment: Comparison experiment (post-emergence, Table 7); conditions: Malachium aquaticum (2 branches)
# Excerpt: as §1
# Galium aparine = experiment: Comparison experiment (post-emergence, Table 7); conditions: Galium aparine (5 branches)
# Excerpt: as §1
# Capsella bursa-pastoris = experiment: Comparison experiment (post-emergence, Table 7); conditions: Capsella bursa-pastoris (10-11 leaf)
# Excerpt: as §1
# Echinochloa crusgali = experiment: Comparison experiment (post-emergence, Table 7); conditions: Echinochloa crusgali (3 leaf)
# Excerpt: as §1
# Veronica didyma = experiment: Comparison experiment (post-emergence, Table 7); conditions: Veronica didyma (2 branches)
# Excerpt: as §1
# Amaranthus retroflexus = experiment: Comparison experiment (post-emergence, Table 7); conditions: Amaranthus retroflexus (6 leaf)
# Excerpt: as §1
# Digitaria sanguinalis [2] = experiment: Comparison experiment (post-emergence) against racemate / S configuration; conditions: Table 6, post-seedling test conditions
# Excerpt: (§2) The above growth control rates are fresh weight control rates.
# (§3) Experiment on weeding effect in post-emergence stage: monocotyledonous and dicotyledonous weed seeds (Descurainia sophia, Capsella bursa-pastoris, Galium aparine, Stellaria media, Lithospermum arvense, Rorippa indica, Alopecurus aequalis, Beckmannia syzigachne, Sclerochloa dura, Phleum paniculatum, Bromus japonicus, Aegilops tauschii, Phalaris arundinacea, Amaranthus retroflexus, Chenopodiaceae, Commelina communis, Sonchus arvensis, convolvulus arvensis, Cirsium setosum, Solanum nigrum, Acalypha australis, Digitaria sanguinalis, Echinochloa crusgalli, Setaria viridis, Setaria glauca, Leptochloa chinensis, Monochoria vaginalis, Sagittaria trifolia, Scirpus juncoides, Cyperus rotundus, Cyperus iria, Cyperus difformis, Fimbristylis, Portulaca oleracea, Xanthium sibiricum, Pharbitis nil) and major crop seeds (wheat, corn, rice, soybean, cotton, oilseed rape, millet, sorghum, potato, sesame, ricinus) were placed in plastic pots filled with soil, then covered with 0.5-2 cm of soil, allowed to grow in a good greenhouse environment. After 2 weeks of sowing, the test plants were treated in the 2 leaf stage. The tested compounds of the present invention were respectively dissolved in acetone, then added with Tween 80 and 1.5 liter/ha of emulsifiable concentrate of methyl oleate as synergist, diluted with a certain amount of water to obtain a solution with a certain concentration, and sprayed with a spray tower onto the plants. After the application, the plants were cultured for 15 days in the greenhouse, and then the experimental results of the weeding were counted. The doses of the used compounds were 500, 250, 125, 60, 30, 15 g/ha, and the averages were obtained by repeating for three times.
# as §1
# Alopecurus japonicas = experiment: as above; conditions: Table 6, post-seedling test conditions
# Excerpt: as §2, §3, §1
smiles,measurement,setting,value
"CC[S+]([O-])c1c(C(F)(F)F)ccc(C(=O)Nc2nnc(C)o2)c1SC (centres unmarked) [Control Compound A′, reference compound]","Results of comparison experiment (16DAA), crop damage",Corn-Zhengdan 958; 3 g/ha,0%
same,"Results of comparison experiment (16DAA), crop damage",Corn-Zhengdan 958; 6 g/ha,0%
same,"Results of comparison experiment (16DAA), crop damage",Corn-Zhengdan 958; 12 g/ha,0%
same,"Results of comparison experiment (16DAA), crop damage",Corn-Zhengdan 958; 24 g/ha,0%
same,"Results of comparison experiment (16DAA), crop damage",Corn-Zhengdan 958; 48 g/ha,0%
same,"Results of comparison experiment (16DAA), weed control",Digitaria sanguinalis [1]; 3 g/ha,10%
same,"Results of comparison experiment (16DAA), weed control",Digitaria sanguinalis [1]; 6 g/ha,10%
same,"Results of comparison experiment (16DAA), weed control",Digitaria sanguinalis [1]; 12 g/ha,20%
same,"Results of comparison experiment (16DAA), weed control",Digitaria sanguinalis [1]; 24 g/ha,30%
same,"Results of comparison experiment (16DAA), weed control",Digitaria sanguinalis [1]; 48 g/ha,30%
same,"Results of comparison experiment, Green Setaria viridis (30 g/ha)","Green Setaria viridis; 30 g/ha, Table 6, post-seedling test conditions",90%
same,"Results of comparison experiment (16DAA), weed control",Green Setaria viridis; 3 g/ha,0%
same,"Results of comparison experiment (16DAA), weed control",Green Setaria viridis; 6 g/ha,0%
same,"Results of comparison experiment (16DAA), weed control",Green Setaria viridis; 12 g/ha,10%
same,"Results of comparison experiment (16DAA), weed control",Green Setaria viridis; 24 g/ha,40%
same,"Results of comparison experiment (16DAA), weed control",Green Setaria viridis; 48 g/ha,50%
same,"Results of comparison experiment (16DAA), weed control",Leptochloa chinensis; 3 g/ha,0%
same,"Results of comparison experiment (16DAA), weed control",Leptochloa chinensis; 6 g/ha,0%
same,"Results of comparison experiment (16DAA), weed control",Leptochloa chinensis; 12 g/ha,0%
same,"Results of comparison experiment (16DAA), weed control",Leptochloa chinensis; 24 g/ha,10%
same,"Results of comparison experiment (16DAA), weed control",Leptochloa chinensis; 48 g/ha,20%
same,"Results of comparison experiment (16DAA), weed control",Abutilon theophrasti; 3 g/ha,10%
same,"Results of comparison experiment (16DAA), weed control",Abutilon theophrasti; 6 g/ha,20%
same,"Results of comparison experiment (16DAA), weed control",Abutilon theophrasti; 12 g/ha,30%
same,"Results of comparison experiment (16DAA), weed control",Abutilon theophrasti; 24 g/ha,40%
same,"Results of comparison experiment (16DAA), weed control",Abutilon theophrasti; 48 g/ha,50%
same,"Results of comparison experiment (16DAA), weed control",Sinapis arvensis; 3 g/ha,0%
same,"Results of comparison experiment (16DAA), weed control",Sinapis arvensis; 6 g/ha,0%
same,"Results of comparison experiment (16DAA), weed control",Sinapis arvensis; 12 g/ha,20%
same,"Results of comparison experiment (16DAA), weed control",Sinapis arvensis; 24 g/ha,40%
same,"Results of comparison experiment (16DAA), weed control",Sinapis arvensis; 48 g/ha,50%
same,"Results of comparison experiment (16DAA), weed control",Descurainia sophia; 3 g/ha,0%
same,"Results of comparison experiment (16DAA), weed control",Descurainia sophia; 6 g/ha,10%
same,"Results of comparison experiment (16DAA), weed control",Descurainia sophia; 12 g/ha,20%
same,"Results of comparison experiment (16DAA), weed control",Descurainia sophia; 24 g/ha,30%
same,"Results of comparison experiment (16DAA), weed control",Descurainia sophia; 48 g/ha,40%
same,"Results of comparison experiment (16DAA), weed control",Malachium aquaticum; 3 g/ha,10%
same,"Results of comparison experiment (16DAA), weed control",Malachium aquaticum; 6 g/ha,10%
same,"Results of comparison experiment (16DAA), weed control",Malachium aquaticum; 12 g/ha,20%
same,"Results of comparison experiment (16DAA), weed control",Malachium aquaticum; 24 g/ha,30%
same,"Results of comparison experiment (16DAA), weed control",Malachium aquaticum; 48 g/ha,50%
same,"Results of comparison experiment (16DAA), weed control",Galium aparine; 3 g/ha,0%
same,"Results of comparison experiment (16DAA), weed control",Galium aparine; 6 g/ha,0%
same,"Results of comparison experiment (16DAA), weed control",Galium aparine; 12 g/ha,0%
same,"Results of comparison experiment (16DAA), weed control",Galium aparine; 24 g/ha,0%
same,"Results of comparison experiment (16DAA), weed control",Galium aparine; 48 g/ha,10%
same,"Results of comparison experiment (16DAA), weed control",Capsella bursa-pastoris; 3 g/ha,0%
same,"Results of comparison experiment (16DAA), weed control",Capsella bursa-pastoris; 6 g/ha,10%
same,"Results of comparison experiment (16DAA), weed control",Capsella bursa-pastoris; 12 g/ha,10%
same,"Results of comparison experiment (16DAA), weed control",Capsella bursa-pastoris; 24 g/ha,20%
same,"Results of comparison experiment (16DAA), weed control",Capsella bursa-pastoris; 48 g/ha,30%
same,"Results of comparison experiment (16DAA), weed control",Echinochloa crusgali; 3 g/ha,10%
same,"Results of comparison experiment (16DAA), weed control",Echinochloa crusgali; 6 g/ha,20%
same,"Results of comparison experiment (16DAA), weed control",Echinochloa crusgali; 12 g/ha,30%
same,"Results of comparison experiment (16DAA), weed control",Echinochloa crusgali; 24 g/ha,40%
same,"Results of comparison experiment (16DAA), weed control",Echinochloa crusgali; 48 g/ha,50%
same,"Results of comparison experiment (16DAA), weed control",Veronica didyma; 3 g/ha,10%
same,"Results of comparison experiment (16DAA), weed control",Veronica didyma; 6 g/ha,10%
same,"Results of comparison experiment (16DAA), weed control",Veronica didyma; 12 g/ha,20%
same,"Results of comparison experiment (16DAA), weed control",Veronica didyma; 24 g/ha,20%
same,"Results of comparison experiment (16DAA), weed control",Veronica didyma; 48 g/ha,20%
same,"Results of comparison experiment (16DAA), weed control",Amaranthus retroflexus; 3 g/ha,10%
same,"Results of comparison experiment (16DAA), weed control",Amaranthus retroflexus; 6 g/ha,10%
same,"Results of comparison experiment (16DAA), weed control",Amaranthus retroflexus; 12 g/ha,40%
same,"Results of comparison experiment (16DAA), weed control",Amaranthus retroflexus; 24 g/ha,50%
same,"Results of comparison experiment (16DAA), weed control",Amaranthus retroflexus; 48 g/ha,50%
same,"Results of comparison experiment, Digitaria sanguinalis (30 g/ha)",Digitaria sanguinalis [2],50%
same,"Results of comparison experiment, Alopecurus japonicas (120 g/ha)",Alopecurus japonicas,20%
